Tested on: Human rhinovirus 1B
Test: Picornavirus assay: human rhinovirus 1B cytopathic effect in HeLa-OHIO cells, CellTiter-Glo readout
Format: cell-based
Conditions: Rhinovirus A, 96 h, compound and virus added together, 4 d at 33° C.
Procedure: (§1) HeLa-OHIO cells (Sigma-Aldrich, St. Louis, Mo.) were plated in 96 well plates at a density of 1.5×10^5 cells per well in assay media (MEM without phenol red or L-glutamine, supplemented with 1% FBS, 1% penicillin/streptomycin, 2 mM GlutaGro, and 1×MEM nonessential amino acids, all from Cellgro, Manassas, Va.). Assay setup took place after allowing cells to adhere for 24 h. Compounds dissolved in DMSO were serially diluted in assay media to 2× final concentration. Media was aspirated from the cells, and 1000 media with compound was added in triplicate. Human rhinovirus 1B (ATCC, Manassas, Va.) was diluted in assay media, and 100 μL was added to cells and compound. The virus inoculum was selected to cause 80-90% cytopathic effect in 4 d. Infected cells were incubated for 4 d at 33° C., 5% CO2. To develop the assay, 100 μL media was replaced with 100 μL CellTiter-Glo® reagent (Promega, Madison, Wis.), and incubated for 10 mins at RT. Luminescence was measured on a Victor X3 multi-label plate reader. Compounds of Formula (I) are active in this assay.

Structure (SMILES) | EC50 [nM]
Nc1ccn([C@@H]2O[C@@](CO)(CCl)[C@@H](O)[C@@H]2F)c(=O)n1 [Compound 3] | < 1000
[N-]=[N+]=NC[C@]1(CO)O[C@@H](n2ccc(N)nc2=O)[C@@H](F)[C@@H]1O [Compound 4] | < 1000
Nc1ccn([C@@H]2O[C@@](CO)(CF)[C@@H](O)[C@@H]2Cl)c(=O)n1 [Compound 2] | 1000 to 10000
Nc1ccn([C@@H]2O[C@@](CO)(CF)[C@@H](O)[C@@H]2F)c(=O)n1 [Compound 7] | < 1000
[N-]=[N+]=NC[C@]1(CO)O[C@@H](n2ccc(N)nc2=O)C[C@@H]1O [Compound 37] | < 1000
CC[C@]1(CO)O[C@@H](n2ccc(N)nc2=O)[C@@H](F)[C@@H]1O [Compound 10] | 1000 to 10000
C=C[C@]1(CO)O[C@@H](n2ccc(N)nc2=O)[C@@H](F)[C@@H]1O [Compound 9] | < 1000

Tested on: Human rhinovirus 1B
Test: Picornavirus assay with 24 h compound pre-incubation before infection: human rhinovirus 1B in HeLa-OHIO cells, CellTiter-Glo readout
Format: cell-based
Conditions: Rhinovirus A, HeLa-OHIO cells pre-incubated with compound for 24 h before infection, 4 d at 33° C.
Procedure: as §1, with “100 μl” for “1000”, “triplicate. Cells were pre-incubated with the diluted compounds for 24 h before infection.” for “triplicate.”

Structure (SMILES) | EC50 [µM]
Nc1ccn([C@@H]2O[C@@](CO)(CF)[C@@H](O)[C@@H]2O)c(=O)n1 [Compound 45] | 1 to 10
C[C@@H]1[C@H](n2ccc(N)nc2=O)O[C@@](CO)(CF)[C@H]1O [Compound 41] | 1 to 10
Nc1ccn([C@@H]2O[C@@](CO)(C(F)F)[C@@H](O)[C@@H]2O)c(=O)n1 [Compound 44] | 10 to 100

Target: human rhinovirus 16 polymerase (HRV16pol) (Human rhinovirus 16, UniProt Q82122)
Test: Picornavirus polymerase inhibition assay: incorporation of tritiated NMP into acid-insoluble RNA products
Format: biochemical
Conditions: not given
Procedure: The enzyme activity of human rhinovirus 16 polymerase (HRV16pol) was measured as an incorporation of tritiated NMP into acid-insoluble RNA products. HRV16pol assay reactions contained 30 Nm recombinant enzyme, 50 Nm heteropolymeric RNA, about 0.5 μCi tritiated NTP, 0.1 Mm of competing cold NTP, 40 Mm Tris-HCl (Ph 7.0), 3 Mm dithiothreitol, and 0.5 Mm MgCl2. Standard reactions were incubated for 2.5 h at 30° C., in the presence of increasing concentration of inhibitor. At the end of the reaction, RNA was precipitated with 10% TCA, and acid-insoluble RNA products were filtered on a size exclusion 96-well plate. After washing of the plate, scintillation liquid was added and radiolabeled RNA products were detected according to standard procedures with a Trilux Microbeta scintillation counter. The compound concentration at which the enzyme-catalyzed rate was reduced by 50% (IC50) was calculated by fitting the data to a non-linear regression (sigmoidal).
A value of ‘A’ in the table below indicates an IC50 of <5 μM, a value of 13′ indicates an IC50<20 μM, and a value of ‘C’ indicates an IC50 value of <100 μM.

Sequence of human rhinovirus 16 polymerase (HRV16pol) (Q82122 1694-2153 limits assumed): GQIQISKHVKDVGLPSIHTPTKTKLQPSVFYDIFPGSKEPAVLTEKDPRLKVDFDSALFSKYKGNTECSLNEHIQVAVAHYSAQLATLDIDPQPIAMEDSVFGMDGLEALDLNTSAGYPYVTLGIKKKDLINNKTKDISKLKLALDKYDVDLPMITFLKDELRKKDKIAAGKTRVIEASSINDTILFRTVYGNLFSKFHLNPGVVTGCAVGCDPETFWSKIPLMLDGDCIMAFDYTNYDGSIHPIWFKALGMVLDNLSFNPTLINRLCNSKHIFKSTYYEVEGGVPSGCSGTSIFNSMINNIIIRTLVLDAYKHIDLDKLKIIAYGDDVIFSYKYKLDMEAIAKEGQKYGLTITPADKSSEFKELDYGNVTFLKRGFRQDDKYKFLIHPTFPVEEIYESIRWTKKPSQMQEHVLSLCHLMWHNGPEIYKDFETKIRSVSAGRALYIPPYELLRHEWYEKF

Structure (SMILES) | IC50 [µM]
Nc1ccn([C@@H]2O[C@](CF)(COP(=O)(O)OP(=O)(O)OP(=O)(O)O)[C@@H](O)[C@@H]2F)c(=O)n1 [Compound 21] | < 5

Same assay, conditions: recombinant HRV16pol, 2.5 h at 30° C., mean of several independent experiments; read-out: IC50

Structure (SMILES) | IC50 [µM]
C#C[C@@H]1[C@H](n2ccc(N)nc2=O)O[C@](CF)(COP(=O)(O)OP(=O)(O)OP(=O)(O)O)[C@H]1O [Compound 48] | < 5
C=C[C@]1(COP(=O)(O)OP(=O)(O)OP(=O)(O)O)O[C@@H](n2ccc(N)nc2=O)[C@@H](F)[C@@H]1O [Compound 23] | < 5
C[C@@H]1[C@H](n2ccc(N)nc2=O)O[C@](CF)(COP(=O)(O)OP(=O)(O)OP(=O)(O)O)[C@H]1O [Compound 47] | < 5
Nc1ccn([C@@H]2O[C@](CF)(COP(=O)(O)OP(=O)(O)OP(=O)(O)O)[C@@H](O)[C@@H]2CF)c(=O)n1 [Compound 50] | 5 to 20
Nc1ccn([C@@H]2O[C@](CBr)(COP(=O)(O)OP(=O)(O)OP(=O)(O)O)[C@@H](O)[C@@H]2F)c(=O)n1 [Compound 20] | 20 to 100
O=c1ccn([C@@H]2O[C@](CCl)(COP(=O)(O)OP(=O)(O)OP(=O)(O)O)[C@@H](O)[C@@H]2F)c(=O)[nH]1 [Compound 19] | < 5
Nc1ccn([C@H]2C[C@H](O)[C@](COP(=O)(O)OP(=O)(O)OP(=O)(O)O)(C(F)F)O2)c(=O)n1 [Compound 54] | < 5
Nc1ccn([C@@H]2O[C@](CF)(COP(=O)(O)OP(=O)(O)OP(=O)(O)O)[C@@H](O)[C@@H]2O)c(=O)n1 [Compound 53] | < 5
C#C[C@]1(COP(=O)(O)OP(=O)(O)OP(=O)(O)O)O[C@@H](n2ccc(N)nc2=O)[C@@H](F)[C@@H]1O [Compound 22] | 5 to 20
CC[C@]1(COP(=O)(O)OP(=O)(O)OP(=O)(O)O)O[C@@H](n2ccc(N)nc2=O)[C@@H](F)[C@@H]1O [Compound 24] | < 5
Nc1ccn([C@@H]2O[C@](CF)(COP(=O)(O)OP(=O)(O)OP(=O)(O)O)[C@@H](O)[C@@H]2Cl)c(=O)n1 [Compound 16] | 20 to 100
Nc1ccn([C@@H]2O[C@@](COP(=O)(O)OP(=O)(O)OP(=O)(O)O)(C(F)F)[C@@H](O)[C@@H]2O)c(=O)n1 [Compound 52] | < 5
[N-]=[N+]=NC[C@]1(COP(=O)(O)OP(=O)(O)OP(=O)(O)O)O[C@@H](n2ccc(N)nc2=O)[C@@H](F)[C@@H]1O [Compound 18] | 5 to 20

Reference: patent publication US9890188B2, “Substituted nucleosides, nucleotides and analogs thereof” (ALIOS BIOPHARMA, INC., priority 2014, dated 2018)
